# Laboratory results published in patent publication US11753403B2, “EIF4E inhibitors and uses thereof” (PIC Therapeutics, Inc., priority 2020, dated 2023).
# Target: Human eIF4E (aa 28-217) / biotin labeled 4G2 peptide (Homo sapiens (Human), UniProt P06730)
# Assay: Human eIF4E/4G2 binding assay (TR-FRET)
# Conditions: Human eIF4E/4G2 TR-FRET binding assay; head says IC50, legend says EC50
# Method: Example 5. Compound Testing in Human eIF4E/4G2 Binding Assay
# Human eIF4E (aa 28-217) with a C-terminal His-tag was expressed in E. coli in inclusion bodies. The protein was solubilized with 8 M urea and purified under denaturing conditions using nickel-charged HisTrap HP columns (GE Healthcare). The purified protein was then refolded by diluting in 20 mM Hepes pH 7.0, 0.5 M NaCl, 1 mM DTT, 1 mM EDTA, 0.5 M arginine plus 6 M urea, and then dialyzing overnight into the same buffer without the urea. The protein was further dialyzed into 20 mM Hepes, pH 6.5, 50 mM NaCl, 1 mM EDTA, 1 mM DTT, and concentrated using Hitrap SP sepharose FF columns (GE Healthcare). The concentrated protein was dialyzed into 20 mM Hepes, pH 7.0, 0.5M NaCl, 5 mM DTT and 10% glycerol, and stored at −80° C. until use.
# Test compounds (3.43 mM stock in DMSO) were diluted 2-fold in series in DMSO (10 concentration points). Compound solutions (1.2 μl/well) were added into black 384-well polypropylene microplates (Matrix, Thermal Scientific). Twenty-two microliters per well of Assay Buffer (50 mM NaPi, pH 6.5, 50 mM KCl, 1 mM DTT and 0.5 mg/ml gamma globulin) and eight microliters per well of 82.5 nM purified eIF4E in Assay Buffer were added. The samples were incubated at room temperature (20-23° C.) for 4 hours. Biotin labeled 4G2 peptide (Ac-Lys-Gln-Tyr-Asp-Arg-Glu-Phe-Leu-Leu-Asp-Phe-Gln-Phe-Met-Pro-Lys(Aha-Bio)-NH2, 1.75 μM stock in DMSO) was diluted to 0.14 μM in Assay Buffer (without DTT) and 5 μl/well was added. The samples were incubated at room temperature for 20 min. Five microliters per well of 6.4 nM Eu-streptavidin (Eu-SA, Perkin Elmer) and 80 nM Allophycocyanin (APC)-anti His antibody (Columbia Biosciences) in Assay Buffer (without DTT) were then added and the samples were incubated at room temperature for 20 min.
# Assay signals were monitored by reading excitation at 340 nm and emission fluorescence at 615 nm and 665 nm on an Envision reader (Perkin Elmer). Normalized TR-FRET (time-resolved fluorescence resonance energy transfer) assay signal (Rn) was calculated by the formula: Rn=[(A−Ba−C×D)/(D−Bd)]×(Dc−Bd) Where A is the fluorescence intensity of the sample at 665 nm, • D is the fluorescence intensity of the sample at 615 nm, • Ba and Bd are plate backgrounds at 665 nm and 615 nm, respectively, • Dc is the fluorescence intensity of 0.78 nM Eu-SA in the assay buffer at 615 nm The cross-talk factor (C) is determined by the following formula: C=(Ac−Ba)/(Dc−Bd) Where Ac is the fluorescence intensity of 0.78 nM Eu-SA in the assay buffer at 665 nm.
# IC50 values were calculated using xLFit program (IDBS). Table 2 below lists EC50 of some compounds, wherein A represents EC50≤1 uM; B represents 1 uM<EC50≤10 uM; and C represents EC50>10 uM.
# Chain of Human eIF4E (aa 28-217) / biotin labeled 4G2 peptide (P06730 28-217): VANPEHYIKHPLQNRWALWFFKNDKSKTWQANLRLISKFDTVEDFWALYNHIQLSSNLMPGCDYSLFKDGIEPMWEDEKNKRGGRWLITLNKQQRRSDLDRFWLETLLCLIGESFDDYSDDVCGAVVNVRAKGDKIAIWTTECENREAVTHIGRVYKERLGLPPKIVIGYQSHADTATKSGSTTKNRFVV
row,IC50 [nM],SMILES
1,1000 to 10000,"O=C(O)C(CNc1nc(-c2ccc(Cl)c(Cl)c2)c(CC(F)(F)F)s1)Cc1ccccc1 (stereo not shown) [I-184, 2-benzyl-3-(4-(3,4-dichlorophenyl)-5-(2,2,2-trifluoroethyl)thiazol-2-ylamino)propanoic acid]"
2,≤ 1000,CC(C)c1sc(N(CCC(=O)O)Cc2ccccc2)nc1-c1ccc(Cl)c(Cl)c1 [I-74]
3,≤ 1000,CC(C)Cc1sc(NCC(Cc2cccc3[nH]ccc23)C(=O)O)nc1-c1ccc(Cl)c(Cl)c1 (stereo not shown) [I-25]
4,1000 to 10000,CC(C)c1sc(NCC(Cc2cccc3[nH]ccc23)C(=O)O)nc1-c1ccc(Cl)cc1 (stereo not shown) [I-44]
5,1000 to 10000,Cc1ccc(CC(CNc2nc(-c3ccc(Cl)c(Cl)c3)c(CC(C)C)s2)C(=O)O)c(C)n1 (stereo not shown) [I-157]
6,1000 to 10000,COc1cccc(-c2nc(NCC(Cc3cccc4[nH]ccc34)C(=O)O)sc2C(C)C)c1 (stereo not shown) [I-35]
7,≤ 1000,CC(C)Cc1sc(N(CCc2nnn[nH]2)Cc2ccccc2)nc1-c1ccc(Cl)c(Cl)c1 [I-100]
8,≤ 1000,CC(C)Cc1sc(N2CCN(C(=O)Nc3ccccc3)C(C(=O)O)C2)nc1-c1ccc(Cl)c(Cl)c1 (stereo not shown) [I-252]
9,> 10000,"CC(C)Cc1sc(NCC(N)C(=O)O)nc1-c1ccc(Cl)c(Cl)c1 (stereo not shown) [I-115, 2-amino-3-(4-(3,4-dichlorophenyl)-5-isobutylthiazol-2-ylamino)propanoic acid]"
10,1000 to 10000,CNC(=O)c1cccc(CC(CNc2nc(-c3ccc(Cl)c(Cl)c3)c(CC(C)C)s2)C(=O)O)c1 (stereo not shown) [I-169]
11,1000 to 10000,COc1cccc(-c2nc(NCC(Cc3cccc(F)c3)C(=O)O)sc2C(C)C)c1 (stereo not shown) [I-32]
12,≤ 1000,"CC(C)c1sc(Nc2ncc(C(F)(F)F)cc2C(=O)O)nc1-c1nc2ccccc2s1 [I-320, 2-(4-(benzo[d]thiazol-2-yl)-5-isopropylthiazol-2-ylamino)-5-(trifluoromethyl)nicotinic acid]"
13,1000 to 10000,CC(C)Cc1sc(NCC(Cc2ccc(S(N)(=O)=O)cc2)C(=O)O)nc1-c1ccc(Cl)c(Cl)c1 (stereo not shown) [I-176]
14,≤ 1000,CC(C)Cc1sc(Nc2cc(C(=O)O)cc(C(F)(F)F)c2)nc1-c1ccc(Cl)c(Cl)c1 [I-213]
15,1000 to 10000,CC(C)c1sc(NCC(Cc2ccccc2)C(=O)O)nc1-c1ccc(Cl)cc1 (stereo not shown) [I-38]
16,1000 to 10000,O=C(O)C(CNc1nc(-c2ccc(Cl)c(Cl)c2)c(C2CCC2)s1)Cc1ccccc1 (stereo not shown) [I-178]
17,≤ 1000,"CC(C)c1sc(NCC(Cc2cccc3cc[nH]c23)C(=O)O)nc1-c1ccc(Cl)c(Cl)c1 (stereo not shown) [I-7, 2-((1H-indol-7-yl)methyl)-3-(4-(3,4-dichlorophenyl)-5-isopropylthiazol-2-ylamino) propanoic acid]"
18,≤ 1000,CC(C)Cc1sc(N(CCC(=O)O)Cc2ccccc2)nc1-c1cc(Cl)c(Cl)c(Cl)c1 [I-111]
19,> 10000,"CS(=O)(=O)c1sc(NCC(Cc2ccccc2)C(=O)O)nc1-c1ccc(Cl)c(Cl)c1 (stereo not shown) [I-181, 2-benzyl-3-(4-(3,4-dichlorophenyl)-5-(methylsulfonyl)thiazol-2-ylamino)propanoic acid]"
20,≤ 1000,COc1ccc(Nc2nc(-c3ccc(Cl)c(Cl)c3)c(CC(C)C)s2)cc1C(=O)O [I-210]
21,> 10000,CC(C)Cc1sc(NCC(Cc2ccc(N)nc2)C(=O)O)nc1-c1ccc(Cl)c(Cl)c1 (stereo not shown) [I-153]
22,1000 to 10000,Cc1cc(Nc2nc(-c3ccc(Cl)c(Cl)c3)c(CC(C)C)s2)cc(C(=O)O)c1 [I-214]
23,1000 to 10000,CC(C)Cc1sc(N(CCCO)CCC(=O)O)nc1-c1ccc(Cl)c(Cl)c1 [I-70]
24,1000 to 10000,CC(C)Cc1sc(NCC(Cc2cccc3cc[nH]c23)C(=O)O)nc1-c1ccc(Cl)c(Cl)c1 (stereo not shown) [I-24]
25,≤ 1000,CC(C)c1sc(Nc2ncc(-c3cccs3)cc2C(=O)O)nc1-c1ccc(Cl)c(C(F)(F)F)c1 [I-263]

row,IC50 [nM],SMILES
1,≤ 1000,CC(C)Cc1sc(N(CCC(=O)O)CC2CCCCC2)nc1-c1ccc(Cl)c(Cl)c1 [I-87]
2,1000 to 10000,CC(C)Cc1sc(N(CCO)CCC(=O)O)nc1-c1ccc(Cl)c(Cl)c1 [I-66]
3,> 10000,CC(C)Cc1sc(N(CCS(=O)(=O)NC(=O)CCN)Cc2ccccc2)nc1-c1ccc(Cl)c(Cl)c1 [I-188]
4,1000 to 10000,COc1ccccc1CC(CNc1nc(-c2ccc(Cl)c(Cl)c2)c(C2CC2)s1)C(=O)O (stereo not shown) [I-12]
5,≤ 1000,"CC(C)Cc1sc(N(CCC(=O)O)Cc2ccccc2)nc1-c1ccc(Cl)c(Cl)c1 [I-47, 3-(benzyl(4-(3,4-dichlorophenyl)-5-isobutylthiazol-2-yl)amino)propanoic acid]"
6,1000 to 10000,"C=Cc1sc(N(CCC(=O)O)Cc2ccccc2)nc1-c1ccc(Cl)c(Cl)c1 [I-129, 3-(benzyl(4-(3,4-dichlorophenyl)-5-vinylthiazol-2-yl)amino)propanoic acid]"
7,1000 to 10000,"CNC(=O)N1CCN(c2nc(-c3ccc(Cl)c(Cl)c3)c(CC(C)C)s2)CC1C(=O)O (stereo not shown) [I-251, 4-(4-(3,4-dichlorophenyl)-5-isobutylthiazol-2-yl)-1-(methylcarbamoyl)piperazine-2-carboxylic acid]"
8,> 10000,"CC(C)Cc1sc(N(CCC(=O)N2CCN(C)CC2)Cc2ccccc2)nc1-c1ccc(Cl)c(Cl)c1 [I-133, 3-(benzyl(4-(3,4-dichlorophenyl)-5-isobutylthiazol-2-yl)amino)-1-(4-methylpiperazin-1-yl)propan-1-one]"
9,1000 to 10000,O=C(O)C(CNc1nc(-c2ccc(Cl)c(Cl)c2)c(C2CC2)s1)Cc1cccc(F)c1 (stereo not shown) [I-14]
10,1000 to 10000,CC(C)Cc1sc(N(CCC(=O)O)Cc2ccccc2)nc1-c1ccc(Cl)cc1 [I-93]
11,≤ 1000,CC(C)Cc1sc(Nc2cc(C(C)(C)C)sc2C(=O)O)nc1-c1ccc(Cl)c(Cl)c1 [I-274]
12,1000 to 10000,CC(C)Cc1sc(NCC(Cc2ccncn2)C(=O)O)nc1-c1ccc(Cl)c(Cl)c1 (stereo not shown) [I-161]
13,≤ 1000,CC(C)c1sc(Nc2c(C(=O)O)sc3ccccc23)nc1-c1ccc(Cl)c(C(F)(F)F)c1 [I-281]
14,1000 to 10000,CC(C)Cc1sc(NCC(Cc2ccc(N(C)C)nc2)C(=O)O)nc1-c1ccc(Cl)c(Cl)c1 (stereo not shown) [I-154]
15,> 10000,CC(C)Cc1sc(N(CCC(=O)O)Cc2ccccc2)nc1-c1ccncc1 [I-84]
16,1000 to 10000,CC(C)c1sc(NCC(Cc2cccc3c2OCO3)C(=O)O)nc1-c1ccc(Cl)cc1 (stereo not shown) [I-39]
17,1000 to 10000,"CC(C)Cc1sc(N(CCC(=O)O)Cc2ccccc2)nc1-c1ccc2[nH]ccc2c1 [I-85, 3-((4-(1H-indol-5-yl)-5-isobutylthiazol-2-yl)(benzyl)amino)propanoic acid]"
18,1000 to 10000,O=C(O)C(CNc1nc(-c2ccc(Cl)c(Cl)c2)c(C2CC2)s1)Cc1cccc2[nH]ccc12 (stereo not shown) [I-16]
19,≤ 1000,CC(C)c1sc(Nc2ncc(Cc3ccccc3)cc2C(=O)O)nc1-c1ccc(Cl)c(Cl)c1 [I-264]
20,≤ 1000,CC(C)Cc1sc(-c2ccc(C(=O)O)s2)nc1-c1ccc(Cl)c(Cl)c1 [I-229]
21,≤ 1000,COc1ccc(-c2nc(Nc3ncc(C(F)(F)F)cc3C(=O)O)sc2C(C)C)cc1Cl [I-326]
22,≤ 1000,COc1cccc(-c2cnc(Nc3nc(-c4ccc(Cl)c(Cl)c4)c(C(C)C)s3)c(C(=O)O)c2)c1 [I-267]
23,> 10000,"O=C(O)c1sc(NCC(Cc2ccccc2)C(=O)O)nc1-c1ccc(Cl)c(Cl)c1 (stereo not shown) [I-183, 2-(2-carboxy-3-phenylpropylamino)-4-(3,4-dichlorophenyl)thiazole-5-carboxylic acid]"
24,> 10000,"CC(C)Cc1sc(N(CCC(=O)O)CCC(=O)O)nc1-c1ccc(Cl)c(Cl)c1 [I-58, 3,3′-(4-(3,4-dichlorophenyl)-5-isobutylthiazol-2-ylazanediyl)dipropanoic acid]"
